Source: US20100093018A1, “CELLS […] PROTEINS AND ASSAYS USING SUCH CELLS” (ACHILLION PHARMACEUTICALS, INC., priority 2007, published 2010)

Tests used:
[1] = tested on: NI-1^R (S282T); assay: Susceptibility of NI-1 resistant replicon cell line; format: cell-based, hepatitis C virus; conditions: NI-1^R (S282T) versus Huh-9-13
[2] = tested on: replicon variants carrying either the C16S or A39V mutation; assay: Summary of three approaches on mutant replicon variants; format: cell-based, hepatitis C virus; conditions: all three approaches
Experimental: To investigate the genetic basis of resistance to ACH-806 in the resistant replicon cellular lines, specifically the role of C16S and A39V in NS3, and 1585T 1 in NS5B, we introduced these mutations separately into a nonselectable replicon containing a luciferase reporter gene. Following the transfection of the parental replicon RNA molecule and the C16S, A39V and I585T variant replicon RNA molecules into Huh-7 cells, the replication capacity of all replicons was determined as described in Method and Materials. […]
To further confirm the role of C16S and A39V in conferring resistance to ACH-806, we introduced both mutations, separately, into a selectable replicon which carries the neo gene and the adaptive mutations that differ from the nonselectable replicon. Following transfection of the parental replicon RNA, the C16S replicon RNA and A39V replicon RNA into Huh-7 cells, the susceptibility of these three replicons to ACH-806, as evaluated by the number of colonies formed under the treatment of both G418 and ACH-806, was compared side by side. […]
A third approach, fragment cloning, was used to reinforce the role of the C16S mutation and to exclude the role of other nonconsensus mutations in conferring resistant to ACH-806. […] The replication capacity of this resulting replicon [Luc/N3-4AR(C16)] was 95% that of its parent [Luc/N3-4AR(S16)] determined as previously described. […]

[3] = tested on: Luc/Parent replicon; assay: Luciferase replicon susceptibility, parent; format: cell-based; conditions: Hepatitis C virus, Luc/Parent replicon in Huh-7 cells, two independent experiments
Experimental: (§1) To investigate the genetic basis of resistance to ACH-806 in the resistant replicon cellular lines, specifically the role of C16S and A39V in NS3, and 1585T 1 in NS5B, we introduced these mutations separately into a nonselectable replicon containing a luciferase reporter gene. Following the transfection of the parental replicon RNA molecule and the C16S, A39V and I585T variant replicon RNA molecules into Huh-7 cells, the replication capacity of all replicons was determined as described in Method and Materials. Replicon RNA carrying the A39V mutation replicated as efficiently as its parent, whereas the C16S and I585T mutations caused a slight decrease in the replication capacity (about 75% that of the parental replicon). The susceptibility of these four replicons to ACH-806 as well as to other classes of inhibitors was compared side by side, and the results are summarized in Table 2.

[4] = tested on: Luc/NS3-A39V replicon; assay: Luciferase replicon susceptibility, NS3 A39V; format: cell-based, hepatitis C virus
Experimental: as §1

[5] = tested on: BILN 2061^R (D168V); assay: Susceptibility of BILN 2061 resistant replicon cell line; format: cell-based, hepatitis C virus; conditions: BILN 2061^R (D168V) versus Huh-9-13
[6] = tested on: Luc/NS5B-I585T; format: cell-based, hepatitis C virus
Experimental: as §1

[7] = tested on: Luc/NS3-C16S replicon; assay: Luciferase replicon susceptibility, NS3 C16S; format: cell-based, hepatitis C virus
Experimental: as §1

[8] = tested on: C16S or A39V replicon variant; assay: Colony formation with selectable replicon under G418 and ACH-806; format: cell-based, hepatitis C virus; conditions: C16S or A39V versus parental selectable replicon
Source text: To further confirm the role of C16S and A39V in conferring resistance to ACH-806, we introduced both mutations, separately, into a selectable replicon which carries the neo gene and the adaptive mutations that differ from the nonselectable replicon. Following transfection of the parental replicon RNA, the C16S replicon RNA and A39V replicon RNA into Huh-7 cells, the susceptibility of these three replicons to ACH-806, as evaluated by the number of colonies formed under the treatment of both G418 and ACH-806, was compared side by side. Again, an approximately 10-fold reduction in the susceptibility of C16S or A39V replicon variant to ACH-806 was observed.

[9] = tested on: ACH-806 resistant replicon cellular lines (806R); assay: Susceptibility of ACH-806 resistant replicon cellular lines; format: cell-based, hepatitis C virus; conditions: for Fold change in EC50: versus Huh-9-13
[10] = tested on: Luc/NS3-4A^R(S16) replicon; assay: Fragment-cloned luciferase replicon susceptibility, S16; format: cell-based; conditions: Hepatitis C virus
Source text: A third approach, fragment cloning, was used to reinforce the role of the C16S mutation and to exclude the role of other nonconsensus mutations in conferring resistant to ACH-806. A ˜3 kb fragment covering the coding region of NS3, NS4A, and part of NS4B was amplified by RT-PCR from total RNA isolated from ACH-806 resistant clone #28. The PCR product was cloned into the nonselectable replicon containing a luciferase reporter gene. Replicon RNA molecules were made from eight individual clones and were transfected into Huh-7 cells to determine the replication capacity by luciferase activity. From the eight clones, two were able to replicate efficiently and sequencing of the entire cloned fragment in these two clones confirmed the existence of C16S mutation in addition to other nonconsensus mutations. The serine at the amino acid residue of NS3 in one of these two clones was then converted back to cysteine using site-directed mutagenesis, leaving other nonconsensus mutations unchanged. The replication capacity of this resulting replicon [Luc/N3-4AR(C16)] was 95% that of its parent [Luc/N3-4AR(S16)] determined as previously described. After transfection into Huh-7 cells, the susceptibility of both replicons was compared. […]

CCCCCOc1ccc(NC(=S)NC(=O)c2cccnc2)cc1C(F)(F)F [ACH-806, 1-nicotinoyl-3-(4-(pentyloxy)-3-(trifluoromethyl)phenyl)thiourea]
Fold change in EC50 [1]: 0.8
decrease in the susceptibility [2]: 10-15 fold
EC50 ([3]; read-out: Potency EC50): 10 ± 10 nM
EC90 ([3]; read-out: Potency EC90): 80 ± 10 nM
Fold change in potency, EC50 ([4]; Luc/NS3-A39V versus Luc/Parent replicon, one experiment): 14
Fold change in potency, EC50 ([4]; {}): 14.0
Fold change in potency, EC90 ([4]; {}): 13.7
Fold change in EC50 [5]: 1.1
Fold change in potency, EC50 [6]: 0.7 ± 0.1
Fold change in potency, EC90 [6]: 1.1 ± 0.1
Fold change in potency, EC50 ([7]; Luc/NS3-C16S versus Luc/Parent replicon): 12
Fold change in potency, EC50 ([7]; {}): 11.1 ± 1.0
Fold change in potency, EC90 ([7]; {}): 11.3 ± 0.9
reduction in the susceptibility (number of colonies formed) [8]: approximately 10 fold
Fold change in EC50 ([9]; 806^R #6 (Selection 2), NS3 A39V): 18.6
Fold change in EC50 ([9]; 806^R #8 (Selection 2), NS3 A39V): 9.5
Fold change in EC50 ([9]; 806^R #9 (Selection 2), NS3 A39V): 11.5
Fold change in EC50 ([9]; 806^R #22 (Selection 1), NS3 C16S): 13.9
Fold change in EC50 ([9]; 806^R #23 (Selection 1), NS3 C16S): 18.6
Fold change in EC50 ([9]; 806^R #24 (Selection 1), NS3 C16S): 11.2
Fold change in EC50 ([9]; 806^R #25 (Selection 1), NS3 C16S): 14.9
Fold change in EC50 ([9]; 806^R #28 (Selection 1), NS3 C16S): 21.3
Average fold change in EC50 ([9]; average over 806^R cell lines): 14.9
EC50 [10]: 270 ± 40 nM
EC90 [10]: 2350 ± 240 nM
